Holding throughout (type): cell-based, human
The subject of data set [1] is MDA-MB-231 breast cancer cell line. Put plainly: MTT cytotoxicity assay on breast cancer cell line MDA-MB-231. To be noted: for IC50: read-out: IC50 values, breast cancer cell line MDA-MB-231; for % viability, breast cancer cell line MDA-MB-231: concentration for the value not given (6.5-50 μM tested). The source says:
(§1) Breast cancer cells MDA-MB-231 were used to investigate the synthesized compounds' anticancer properties. Because these cancer cells lack estrogen receptors (ER), progesterone receptors (PR), and human epidermal growth factor receptor 2 (HER2), they are also known as triple-negative breast cancer cells (TNBC).[44] These receptors are generally utilized as target proteins in cancer treatment and are often overexpressed in cancer cells. […] At the same time human normal breast epithelial cell line MCF-10A was kept as a control in the experiment to check out whether the cytotoxic effects of the compounds were selective for malignant cells in comparison to non-malignant cells. Variable concentrations (6.5 μM, 12.5 μM, 25 μM, and 50 μM) of the synthesized compounds 5–25 were used to investigate the prohibition of growth in the human breast cancer cell line MDA-MB-231 and the non-tumorigenic MCF-10. The MTT [3-(4,5-dimethylthiazol-2-yl)-2,5-diphenyltetrazolium bromide] assay was used to determine the reduction in cancer cell viability induced by cytotoxic agents. […] IBM SPSS Statistics 26 software was used for the analysis of dose–response and computation of IC50 values.
(§2) In vitro, cytotoxicity assay for the synthetic derivatives was determined by performing an MTT (yellow tetrazolium salt, 3-(4,5-dimethylthizol-2-yl)-2,5-diphenyl tetrazolium bromide) assay by using an aggressive breast cancer cell line MDA-MB-231.[51] Human breast normal cell line MCF-10A was kept as a control in the study.[52,53] Cells were cultured in DMEM augmented with 10% FBS and 1% antibiotics (100 U per mL penicillin). The cells were sowed in a 96-well plate at a 1.0 × 10^4 cells per well density and incubated for 24 h at 37 °C in 5% CO2. The medium was discarded, and both the cell lines were treated with different concentrations (6.5 μM, 12.5 μM, 25 μM, and 50 μM) of synthetic hydrazone derivatives.[54] After 48 h of incubation 20 μL of MTT solution (5 mg mL^−1) was pipetted into each well and incubated for another 4 h.[55] Later the medium was discarded, and the precipitate of formazan was dissolved in DMSO. The absorbance of the mixtures was calculated using a microplate reader at 570 nm. Triplicates were used for performing all experiments and the cytotoxicity was expressed as a percentage of cell viability compared to untreated control cells.[54]1 [drawing 22]

A short description of data set [2]: MTT cytotoxicity assay on normal breast epithelial cell line MCF-10A (control). The conditions noted are these: human, MTT, 48 h, concentration for the value not given (6.5-50 μM tested).
Description: as §1, §2

Data set [3] deals with normal cell line MCF-10. The description is as above. The conditions noted are these: for IC50: read-out: IC50 values, normal cell line MCF-10.
Description: as §1, §2

Setting [4] is: Homo sapiens, MDA-MB-231, MTT, 48 h.
[5] abbreviates: MCF-10A normal breast epithelial cells.
Where [6] appears, read: Homo sapiens, MCF10, MTT, 48 h, unit from text (highest concentration 50 μM).

Read-outs that look alike come from different tables or passages of the source. Where only a bound is given, the exact number is not on record here.

`O=C(Cc1ccccc1)N/N=C1/C(=O)N(Cc2ccccc2)c2ccccc21` [Compound 24, (E)-N′-(1-Benzyl-2-oxoindolin-3-ylidene)-2-phenylacetohydrazide]: the half-maximal inhibitory concentration (IC50) in data set [1] (setting [4]) was 24.5 ± 0.8 µM; in data set [3] (setting [6]), > 50 µM. Moreover, the “% viability, breast cancer cell line MDA-MB-231” value in data set [1] (MTT, 48 h) amounted to 29.54%. In addition, the viability at 48 h in data set [2] (setting [5]) turned out to be 78.5%.
Turning to `O=C(N/N=C1/C(=O)N(Cc2ccccc2)c2ccccc21)c1ccccc1Br` [Compound 22, (E)-N′-(1-Benzyl-2-oxoindolin-3-ylidene)-2-bromobenzohydrazide], the IC50 in data set [1] (Homo sapiens, MDA-MB-231, 48 h) is 26.1 ± 0.7 µM; in data set [3] (Homo sapiens, MCF10, 48 h), > 50 µM. Further, in data set [1] (MTT, 48 h), the “% viability, breast cancer cell line MDA-MB-231” value is on record as 21.28%. Moreover, the viability at 48 h in data set [2] worked out at 78.4%.
`O=C(Cc1ccccc1Nc1c(Cl)cccc1Cl)N/N=C1/C(=O)N(Cc2ccccc2)c2ccccc21` [Compound 19, (E)-N′-(1-Benzyl-2-oxoindolin-3-ylidene)-2-(2-((2,6-dichlorophenyl)amino)phenyl) acetohydrazide]: the IC50 in data set [1] (setting [4]) is 29.2 ± 0.4 µM; in data set [3] (setting [6]), > 50 µM. In addition, the “% viability, breast cancer cell line MDA-MB-231” value in data set [1] (MTT, 48 h) was determined as 37.23%. This molecule also registered a viability at 48 h in data set [2] (setting [5]) of 80.3%.
In the case of `O=C(N/N=C1/C(=O)N(Cc2ccccc2)c2ccccc21)c1ccncc1` [Compound 8, (E)-N′-(1-Benzyl-2-oxoindolin-3-ylidene)isonicotinohydrazide], the IC50 was 16.8 ± 0.9 µM in data set [1] (Homo sapiens, MDA-MB-231, 48 h) and > 50 µM in data set [3] (Homo sapiens, MCF10, 48 h). In data set [1] (MTT, 48 h), the “% viability, breast cancer cell line MDA-MB-231” value amounted to 19.13%. Further, the viability at 48 h in data set [2] is 78.1%.
Take `Cc1ccc(F)c(C(=O)N/N=C2/C(=O)N(Cc3ccccc3)c3ccccc32)c1` [Compound 7, (E)-N′-(1-Benzyl-2-oxoindolin-3-ylidene)-2-fluoro-5-methylbenzohydrazide]: the IC50 in data set [1] (Homo sapiens, MDA-MB-231, 48 h) is 33.6 ± 0.5 µM; in data set [3] (Homo sapiens, MCF10, 48 h), > 50 µM. In addition, the “% viability, breast cancer cell line MDA-MB-231” value in data set [1] (MTT, 48 h) amounted to 30.01%. The same molecule showed a viability at 48 h in data set [2] of 79.3%.
The matching figures for `O=C(N/N=C1/C(=O)N(Cc2ccccc2)c2ccccc21)c1ccc(C(F)(F)F)cc1` [Compound 17, (E)-N′-(1-Benzyl-2-oxoindolin-3-ylidene)-4-(trifluoromethyl)benzohydrazide]: 37.5 ± 0.9 µM, > 50 µM, 38.09% and 77.6%.
The like results for `O=C(N/N=C1/C(=O)N(Cc2ccccc2)c2ccccc21)c1cccc2ccccc12` [Compound 13, (E)-N′-(1-Benzyl-2-oxoindolin-3-ylidene)-1-naphthohydrazide] were, in that order, 28.6 ± 0.5 µM, > 50 µM, 29.01% and 79.1%.
For `Cc1ccccc1C(=O)N/N=C1/C(=O)N(Cc2ccccc2)c2ccccc21` [Compound 15, (E)-N′-(1-Benzyl-2-oxoindolin-3-ylidene)-2-methylbenzohydrazide], the IC50 was 24.4 ± 0.6 µM in data set [1] (Homo sapiens, MDA-MB-231, 48 h) and > 50 µM in data set [3] (Homo sapiens, MCF10, 48 h). In data set [1] (MTT, 48 h), the “% viability, breast cancer cell line MDA-MB-231” value came out at 23.77%. The molecule further came in with a viability at 48 h in data set [2] of 84.3%.
On to `O=C(N/N=C1\C(=O)N(Cc2ccccc2)c2ccccc21)c1cccnc1` [Compound 18, (Z)-N′-(1-Benzyl-2-oxoindolin-3-ylidene)nicotinohydrazide], for which the IC50 in data set [1] (Homo sapiens, MDA-MB-231, 48 h) was 34.6 ± 0.4 µM; in data set [3] (Homo sapiens, MCF10, 48 h) it was > 50 µM. For the same molecule, the “% viability, breast cancer cell line MDA-MB-231” value in data set [1] (MTT, 48 h) is 41.19%. The molecule also had a viability at 48 h in data set [2] of 85.1%.
The matching figures for `Cc1ccc(C(=O)N/N=C2/C(=O)N(Cc3ccccc3)c3ccccc32)cc1F` [Compound 9, (E)-N′-(1-Benzyl-2-oxoindolin-3-ylidene)-3-fluoro-4-methylbenzohydrazide]: 27.4 ± 0.5 µM, > 50 µM, 25.61% and 76.2%.
The like results for `O=C(N/N=C1/C(=O)N(Cc2ccccc2)c2ccccc21)c1ccc(Br)cc1` [Compound 14, (E)-N′-(1-Benzyl-2-oxoindolin-3-ylidene)-4-bromobenzohydrazide] were, in that order, 36.8 ± 0.7 µM, > 50 µM, 42.11% and 85.4%.
The matching figures for `O=C(N/N=C1/C(=O)N(Cc2ccccc2)c2ccccc21)c1cc2ccccc2cc1O` [Compound 25, (E)-N′-(1-Benzyl-2-oxoindolin-3-ylidene)-3-hydroxy-2-naphthohydrazide]: 30.6 ± 0.4 µM, > 50 µM, 31.67% and 76.3%.
With `O=C(N/N=C1/C(=O)N(Cc2ccccc2)c2ccccc21)c1ccco1` [Compound 16, (E)-N′-(1-Benzyl-2-oxoindolin-3-ylidene)furan-2-carbohydrazide], the IC50 in data set [1] (Homo sapiens, MDA-MB-231, 48 h) was 29.2 ± 0.7 µM; in data set [3] (Homo sapiens, MCF10, 48 h), > 50 µM. The “% viability, breast cancer cell line MDA-MB-231” value in data set [1] (MTT, 48 h) is given as 29.40%. Besides, the viability at 48 h in data set [2] was 79.9%.
The matching figures for `O=C(N/N=C1/C(=O)N(Cc2ccccc2)c2ccccc21)c1ccccc1` [Compound 11, (E)-N′-(1-Benzyl-2-oxoindolin-3-ylidene)benzohydrazide]: 28.4 ± 0.5 µM, > 50 µM, 25.41% and 82%.
The matching figures for `O=C(N/N=C1/C(=O)N(Cc2ccccc2)c2ccccc21)c1cccc(Cl)c1` [Compound 5, (E)-N′-(1-Benzyl-2-oxoindolin-3-ylidene)-3-chlorobenzohydrazide]: 26.4 ± 0.8 µM, > 50 µM, 27.11% and 80.1%.
The like results for `COc1ccc(C(=O)N/N=C2/C(=O)N(Cc3ccccc3)c3ccccc32)cc1` [Compound 6, (E)-N′-(1-Benzyl-2-oxoindolin-3-ylidene)-4-methoxybenzohydrazide] were, in that order, 25.8 ± 0.4 µM, > 50 µM, 26.13% and 81.1%.
On to `O=C(Cc1ccccc1C(F)(F)F)N/N=C1/C(=O)N(Cc2ccccc2)c2ccccc21` [Compound 10, (E)-N′-(1-Benzyl-2-oxoindolin-3-ylidene)-2-(2-(trifluoromethyl)phenyl)acetohydrazide], for which the IC50 in data set [1] (setting [4]) was 25.4 ± 0.8 µM; in data set [3] (setting [6]), > 50 µM. For the same molecule, in data set [1] (MTT, 48 h), the “% viability, breast cancer cell line MDA-MB-231” value worked out at 29.12%. This molecule also displayed a viability at 48 h in data set [2] (setting [5]) of 84.9%.
The matching figures for `O=C(Cc1ccc(C(F)(F)F)cc1)N/N=C1/C(=O)N(Cc2ccccc2)c2ccccc21` [Compound 12, (E)-N′-(1-Benzyl-2-oxoindolin-3-ylidene)-2-(4-(trifluoromethyl)phenyl)acetohydrazide]: 31.2 ± 0.9 µM, > 50 µM, 36.52% and 80.4%.
In the case of `O=C(N/N=C1/C(=O)N(Cc2ccccc2)c2ccccc21)c1ccccc1Cl` [Compound 20, (E)-N′-(1-Benzyl-2-oxoindolin-3-ylidene)-2-chlorobenzohydrazide], the IC50 in data set [1] (Homo sapiens, MDA-MB-231, 48 h) was 28.8 ± 0.6 µM; in data set [3] (Homo sapiens, MCF10, 48 h), > 50 µM. Besides, the “% viability, breast cancer cell line MDA-MB-231” value in data set [1] (MTT, 48 h) came out at 34.56%. The same molecule registered a viability at 48 h in data set [2] of 77.6%.
Regarding “(E)-1-Benzyl-3-((2-(4-nitrophenyl)-2-oxoethyl)imino)indolin-2-one [Compound 23]”, in data set [1] (MTT, 48 h), the “% viability, breast cancer cell line MDA-MB-231” value is recorded as 17.37%. Besides, the half-maximal inhibitory concentration (IC50) in data set [1] (MTT, 48 h) was 15.8 ± 0.6 µM; in data set [3] (MTT, 48 h, unit from text (highest concentration 50 μM)), > 50 µM. Besides, the “% viability, normal cell line MCF-10” value in data set [3] (MTT, 48 h, concentration for the value not given (6.5-50 μM tested)) is 75.23%.
Take `O=C(Cc1ccc(F)cc1F)N/N=C1/C(=O)N(Cc2ccccc2)c2ccccc21` [Compound 21, (E)-N′-(1-Benzyl-2-oxoindolin-3-ylidene)-2-(2,4-difluorophenyl)acetohydrazide]: the IC50 in data set [1] (Homo sapiens, MDA-MB-231, 48 h) was 22.2 ± 0.7 µM; in data set [3] (Homo sapiens, MCF10, 48 h), > 50 µM. Further, in data set [1] (MTT, 48 h), the “% viability, breast cancer cell line MDA-MB-231” value turned out to be 22.46%. Further, in data set [2], the viability at 48 h came to 85.7%.

For the origin of these results see paper PMC11726183, “Design, synthesis, in vitro, and in silico studies of novel isatin-hybrid hydrazones as potential triple-negative breast cancer agents” (RSC Advances, 2025).
